Data from PMC5884507, “A group of Populus trichocarpa DUF231 proteins exhibit differential O-acetyltransferase activities toward xylan” (PLoS ONE, 2018).

Experiments:
Assay in all cases: radiolabelled acetyl transfer, scintillation counting
Assay type in all cases: biochemical
Details in all cases: 0.1 mM 14C-acetyl-CoA, 50 mM HEPES pH 7.0, 37 C, 4 hr
[1] = biological target: T1, PtrXOAT8 (Populus trichocarpa, UniProt A0A2R4P4N1)
T1 construct: gene XOAT8; lumenal catalytic domain 33-415, transmembrane region removed; Igkappa leader, C-terminal c-myc and His6; secreted by HEK293F, nickel-purified
T1 sequence (A0A2R4P4N1 entry or part of it): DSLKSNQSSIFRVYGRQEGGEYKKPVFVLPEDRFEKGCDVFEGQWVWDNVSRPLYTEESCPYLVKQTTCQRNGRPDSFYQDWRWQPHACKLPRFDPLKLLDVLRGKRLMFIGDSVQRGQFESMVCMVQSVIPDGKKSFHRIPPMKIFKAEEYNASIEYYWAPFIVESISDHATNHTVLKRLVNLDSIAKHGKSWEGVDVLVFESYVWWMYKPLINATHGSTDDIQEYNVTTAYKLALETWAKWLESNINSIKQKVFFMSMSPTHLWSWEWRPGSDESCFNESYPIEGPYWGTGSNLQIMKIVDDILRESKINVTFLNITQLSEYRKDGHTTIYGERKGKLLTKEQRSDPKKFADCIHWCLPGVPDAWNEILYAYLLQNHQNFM

[2] = biological target: T2, PtrXOAT5 (Populus trichocarpa, UniProt A0A2R4P4M8)
T2 construct: gene XOAT5; lumenal catalytic domain 33-470, transmembrane region removed; Igkappa leader, C-terminal c-myc and His6; secreted by HEK293F, nickel-purified
T2 sequence (A0A2R4P4M8 entry or part of it): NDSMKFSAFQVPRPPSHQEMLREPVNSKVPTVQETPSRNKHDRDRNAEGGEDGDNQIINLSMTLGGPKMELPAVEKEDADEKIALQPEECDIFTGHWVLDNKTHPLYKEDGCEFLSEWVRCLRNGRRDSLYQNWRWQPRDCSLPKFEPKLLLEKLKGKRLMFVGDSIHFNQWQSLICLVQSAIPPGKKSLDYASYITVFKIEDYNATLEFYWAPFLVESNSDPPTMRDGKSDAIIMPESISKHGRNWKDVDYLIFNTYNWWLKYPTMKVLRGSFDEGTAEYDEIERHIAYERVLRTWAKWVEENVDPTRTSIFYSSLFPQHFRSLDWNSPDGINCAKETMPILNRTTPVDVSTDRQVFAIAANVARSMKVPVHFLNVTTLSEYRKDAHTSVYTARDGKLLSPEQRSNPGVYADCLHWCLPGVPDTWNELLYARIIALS

[3] = biological target: T3, PtrXOAT10 (Populus trichocarpa, UniProt A0A2R4P4N0)
T3 construct: gene XOAT10; lumenal catalytic domain 55-438, transmembrane region removed; Igkappa leader, C-terminal c-myc and His6; secreted by HEK293F, nickel-purified
T3 sequence (A0A2R4P4N0 entry or part of it): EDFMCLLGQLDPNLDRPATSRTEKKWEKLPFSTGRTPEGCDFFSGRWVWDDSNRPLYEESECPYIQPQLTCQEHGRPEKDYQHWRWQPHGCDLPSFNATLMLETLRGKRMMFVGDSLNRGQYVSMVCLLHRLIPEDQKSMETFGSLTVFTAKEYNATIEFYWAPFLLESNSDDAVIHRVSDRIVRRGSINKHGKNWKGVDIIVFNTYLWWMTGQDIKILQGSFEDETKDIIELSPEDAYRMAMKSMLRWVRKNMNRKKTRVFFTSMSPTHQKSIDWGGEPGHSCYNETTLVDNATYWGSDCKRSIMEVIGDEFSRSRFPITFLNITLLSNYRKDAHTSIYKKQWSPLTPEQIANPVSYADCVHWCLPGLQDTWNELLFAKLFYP

[4] = biological target: T4, PtrXOAT6 (Populus trichocarpa, UniProt A0A2R4P4M4)
T4 construct: gene XOAT6; lumenal catalytic domain 36-446, transmembrane region removed; Igkappa leader, C-terminal c-myc and His6; secreted by HEK293F, nickel-purified
T4 sequence (A0A2R4P4M4 entry or part of it): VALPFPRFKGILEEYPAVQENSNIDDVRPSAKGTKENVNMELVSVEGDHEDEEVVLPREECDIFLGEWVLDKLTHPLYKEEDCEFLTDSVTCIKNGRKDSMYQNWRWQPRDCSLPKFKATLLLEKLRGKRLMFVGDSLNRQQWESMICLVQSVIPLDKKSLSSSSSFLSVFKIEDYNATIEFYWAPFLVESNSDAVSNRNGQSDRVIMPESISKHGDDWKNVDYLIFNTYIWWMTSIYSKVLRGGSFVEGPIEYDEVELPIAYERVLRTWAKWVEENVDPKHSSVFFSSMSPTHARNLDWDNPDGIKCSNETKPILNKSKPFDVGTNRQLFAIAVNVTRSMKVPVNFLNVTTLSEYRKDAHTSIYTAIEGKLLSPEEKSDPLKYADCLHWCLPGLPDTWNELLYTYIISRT

[5] = biological target: T5, PtrXOAT4 (Populus trichocarpa, UniProt A0A2R4P4M0)
T5 construct: gene XOAT4; lumenal catalytic domain 37-428, transmembrane region removed; Igkappa leader, C-terminal c-myc and His6; secreted by HEK293F, nickel-purified
T5 sequence (A0A2R4P4M0 entry or part of it): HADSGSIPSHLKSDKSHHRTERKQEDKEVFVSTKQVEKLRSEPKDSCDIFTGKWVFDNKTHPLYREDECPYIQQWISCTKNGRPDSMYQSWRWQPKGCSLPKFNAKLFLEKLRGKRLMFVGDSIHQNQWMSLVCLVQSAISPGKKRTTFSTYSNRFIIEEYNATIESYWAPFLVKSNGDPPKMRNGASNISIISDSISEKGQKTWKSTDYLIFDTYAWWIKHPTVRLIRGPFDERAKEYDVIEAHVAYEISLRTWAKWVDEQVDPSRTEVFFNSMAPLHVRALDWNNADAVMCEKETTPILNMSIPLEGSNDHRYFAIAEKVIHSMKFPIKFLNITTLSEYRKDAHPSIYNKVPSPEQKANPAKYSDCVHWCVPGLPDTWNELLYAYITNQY

[6] = biological target: T6, PtrXOAT7 (Populus trichocarpa, UniProt B9IGB9)
T6 construct: gene XOAT7; lumenal catalytic domain 38-426, transmembrane region removed; Igkappa leader, C-terminal c-myc and His6; secreted by HEK293F, nickel-purified
T6 sequence (B9IGB9 entry or part of it): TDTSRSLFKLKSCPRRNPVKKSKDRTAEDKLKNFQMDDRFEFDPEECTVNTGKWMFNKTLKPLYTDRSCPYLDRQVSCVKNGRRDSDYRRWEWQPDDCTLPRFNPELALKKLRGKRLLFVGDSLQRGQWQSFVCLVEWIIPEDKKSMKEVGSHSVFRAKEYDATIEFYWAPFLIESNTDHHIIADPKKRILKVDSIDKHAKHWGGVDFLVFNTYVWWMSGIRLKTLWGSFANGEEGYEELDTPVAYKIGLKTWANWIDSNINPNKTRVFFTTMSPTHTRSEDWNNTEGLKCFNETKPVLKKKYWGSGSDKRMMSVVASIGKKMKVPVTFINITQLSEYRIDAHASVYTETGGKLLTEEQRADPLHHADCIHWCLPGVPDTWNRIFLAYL

[7] = biological target: T7, PtrXOAT9 (Populus trichocarpa, UniProt A0A2K1ZDC4)
T7 construct: gene XOAT9; lumenal catalytic domain 52-437, transmembrane region removed; Igkappa leader, C-terminal c-myc and His6; secreted by HEK293F, nickel-purified
T7 sequence (A0A2K1ZDC4 entry or part of it): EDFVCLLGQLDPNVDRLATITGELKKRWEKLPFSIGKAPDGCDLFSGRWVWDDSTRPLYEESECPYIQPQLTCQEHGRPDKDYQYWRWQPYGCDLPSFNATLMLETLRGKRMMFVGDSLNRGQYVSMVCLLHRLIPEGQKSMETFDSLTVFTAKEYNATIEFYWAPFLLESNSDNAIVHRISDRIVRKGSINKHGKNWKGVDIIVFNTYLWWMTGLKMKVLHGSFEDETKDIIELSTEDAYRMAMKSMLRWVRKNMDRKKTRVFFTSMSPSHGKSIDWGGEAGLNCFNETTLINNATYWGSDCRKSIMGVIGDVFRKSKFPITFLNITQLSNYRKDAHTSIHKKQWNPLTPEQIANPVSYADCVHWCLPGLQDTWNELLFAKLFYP

## OC1OC[C@@H](O[C@@H]2OC[C@@H](O[C@@H]3OC[C@@H](O[C@@H]4OC[C@@H](O[C@@H]5OC[C@@H](O[C@@H]6OC[C@@H](O)[C@H](O)[C@H]6O)[C@H](O)[C@H]5O)[C@H](O)[C@H]4O)[C@H](O)[C@H]3O)[C@H](O)[C@H]2O)[C@H](O)[C@H]1O (stereo partly shown) [Xyl6, xylohexaose]
[1]
  radiolabelled acetyl transfer, scintillation counting: PtrXOAT4 to PtrXOAT10 had a low level of activity
[2]
  radiolabelled acetyl transfer, scintillation counting: PtrXOAT4 to PtrXOAT10 had a low level of activity
[3]
  radiolabelled acetyl transfer, scintillation counting: PtrXOAT4 to PtrXOAT10 had a low level of activity
[4]
  radiolabelled acetyl transfer, scintillation counting: PtrXOAT4 to PtrXOAT10 had a low level of activity
[5]
  radiolabelled acetyl transfer, scintillation counting: PtrXOAT4 to PtrXOAT10 had a low level of activity
[6]
  radiolabelled acetyl transfer, scintillation counting: PtrXOAT4 to PtrXOAT10 had a low level of activity
[7]
  radiolabelled acetyl transfer, scintillation counting: PtrXOAT4 to PtrXOAT10 had a low level of activity
